{"source": "paper PMC9250238", "about": "(BMC Complementary Medicine and Therapies, 2022)", "key": {"[1]": {"molecular_target": "T1, α-glucosidase (Saccharomyces cerevisiae) (Saccharomyces cerevisiae, UniProt P53341)", "T1 sequence (P53341 whole entry)": "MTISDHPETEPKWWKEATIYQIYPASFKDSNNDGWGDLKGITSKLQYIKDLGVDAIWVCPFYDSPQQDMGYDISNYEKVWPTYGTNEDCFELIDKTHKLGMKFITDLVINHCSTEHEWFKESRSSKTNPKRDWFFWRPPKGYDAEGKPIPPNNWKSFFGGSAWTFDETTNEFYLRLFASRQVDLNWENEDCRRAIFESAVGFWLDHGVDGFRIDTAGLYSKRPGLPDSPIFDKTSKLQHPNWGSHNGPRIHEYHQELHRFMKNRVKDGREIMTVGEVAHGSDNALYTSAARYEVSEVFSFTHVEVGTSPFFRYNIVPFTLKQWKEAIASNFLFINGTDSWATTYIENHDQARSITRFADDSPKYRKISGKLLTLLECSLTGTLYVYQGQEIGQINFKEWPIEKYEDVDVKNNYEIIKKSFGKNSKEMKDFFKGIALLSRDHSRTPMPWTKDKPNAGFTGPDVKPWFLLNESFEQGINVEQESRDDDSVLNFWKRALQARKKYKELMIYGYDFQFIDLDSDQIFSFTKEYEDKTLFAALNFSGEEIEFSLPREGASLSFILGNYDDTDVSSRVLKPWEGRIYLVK", "experiment": "Combined inhibition of acarbose and selected compounds against α-glucosidase (CompuSyn CI)", "assay_type": "biochemical", "parameters": "purchased Sigma–Aldrich", "conditions": "for Type of interaction with acarbose against α-glucosidase: CI >1.1 antagonistic, 0.9-1.1 additive, <0.9 synergistic; for CI values against α-glucosidase: combination with acarbose, over tested concentrations", "description": "(§1) A combination index (CI) was employed to evaluate the impacts of binary inhibitors on α-glucosidase and α-amylase. […] When the CI values were above 1.1, between 0.9 and 1.1, and below 0.9, the effects were defined as antagonistic, additive, and synergistic."}, "[2]": {"molecular_target": "T1, α-glucosidase (Saccharomyces cerevisiae)", "experiment": "biochemical", "protocol": "(§3) α-Glucosidase inhibitor screening was conducted according to a previously reported procedure with slight modifications [20]. A measured amount of pNPG powder was dissolved at 2 mg/mL in 0.01 M phosphate buffer (pH = 6.8), and then 50 μL of the pNPG solution was mixed with an equal volume of isolated compounds from D. angustifolia Roxb, which were diluted to 4 mM. After being kept at 37 °C for 10 min, 25 μL of α-glucosidase (0.5 U/mL) was added. Following another 10 min incubation at 37 °C, the reaction was stopped with 125 μL of 0.2 M Na2CO3, and the absorbance at 410 nm of each sample (converted pNP) was measured via a microplate reader (BioTek ELX-800, USA)."}, "[3]": {"molecular_target": "T2, α-amylase (porcine pancreas) (Sus scrofa, UniProt P00690)", "T2 sequence (P00690 16-511)": "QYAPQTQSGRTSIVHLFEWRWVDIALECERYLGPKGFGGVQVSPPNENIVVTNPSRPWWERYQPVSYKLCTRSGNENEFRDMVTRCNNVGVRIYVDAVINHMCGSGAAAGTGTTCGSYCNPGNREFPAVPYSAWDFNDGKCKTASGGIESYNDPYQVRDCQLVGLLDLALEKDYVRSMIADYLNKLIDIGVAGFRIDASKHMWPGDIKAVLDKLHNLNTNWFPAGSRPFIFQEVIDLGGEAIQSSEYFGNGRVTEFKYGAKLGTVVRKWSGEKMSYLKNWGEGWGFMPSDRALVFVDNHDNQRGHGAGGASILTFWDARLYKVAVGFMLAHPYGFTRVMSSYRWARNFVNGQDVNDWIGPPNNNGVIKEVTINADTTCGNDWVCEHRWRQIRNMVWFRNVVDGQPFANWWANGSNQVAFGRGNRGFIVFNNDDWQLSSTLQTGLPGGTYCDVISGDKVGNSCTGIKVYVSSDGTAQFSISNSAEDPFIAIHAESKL", "experiment": "α-Amylase inhibition assay (starch-iodine)", "conditions": "for IC50 against α-amylase (result in words): in the test concentration range", "protocol": "Changes in α-amylase activities were quantitatively analysed via a method based on starch-iodine colorimetric detection [21]. […] A mixture of 40 μL of starch solution and 40 μL of selected compounds was maintained at 37 °C for 10 min, and 80 μL α-amylase (5 U/mL) was added to start the reaction. After 30 min at 37 °C, terminations were achieved using 40 μL of 1 M HCl."}, "[4]": {"molecular_target": "T2, α-amylase (porcine pancreas)", "experiment": "Combined inhibition of acarbose and selected flavonoids against α-amylase (CompuSyn CI)", "assay_type": "biochemical", "parameters": "purchased Sigma–Aldrich; host or cells: porcine pancreas", "conditions": "CI >1.1 antagonistic, 0.9-1.1 additive, <0.9 synergistic", "procedure": "(§2) Changes in α-amylase activities were quantitatively analysed via a method based on starch-iodine colorimetric detection. […] A mixture of 40 μL of starch solution and 40 μL of selected compounds was maintained at 37 °C for 10 min, and 80 μL α-amylase (5 U/mL) was added to start the reaction. After 30 min at 37 °C, terminations were achieved using 40 μL of 1 M HCl.\nas §1"}, "[5]": {"molecular_target": "T2, α-amylase (porcine pancreas)", "experiment": "Kinetic test for α-amylase (Lineweaver–Burk)", "assay_type": "biochemical", "parameters": "purchased Sigma–Aldrich; host or cells: porcine pancreas", "conditions": "Lineweaver–Burk plots", "procedure": "as §2"}, "[6]": {"molecular_target": "T1, α-glucosidase (Saccharomyces cerevisiae)", "experiment": "Kinetic test for α-glucosidase (Lineweaver–Burk)", "protocol": "A measured amount of pNPG powder was dissolved at 2 mg/mL in 0.01 M phosphate buffer (pH = 6.8), and then 50 μL of the pNPG solution was mixed with an equal volume of isolated compounds from D. angustifolia Roxb, which were diluted to 4 mM. After being kept at 37 °C for 10 min, 25 μL of α-glucosidase (0.5 U/mL) was added. Following another 10 min incubation at 37 °C, the reaction was stopped with 125 μL of 0.2 M Na2CO3, and the absorbance at 410 nm of each sample (converted pNP) was measured via a microplate reader (BioTek ELX-800, USA). […] To acquire the inhibition type and related parameters of those inhibitors, kinetic assays were carried out, and the conditions of enzymatic reactions are detailed in the above section, in which the amount of enzymes was fixed. With an increasing amount of substrate, the amount of hydrolysed pNPG or starch in the presence of compounds (concentration gradient was established on the basis of their IC50 value) was quantified to create Lineweaver–Burk plots."}, "[7]": {"molecular_target": "T1, α-glucosidase (Saccharomyces cerevisiae)", "conditions": "read-out: IC50 against α-glucosidase; in vitro, pNPG substrate, 37 °C, pH 6.8", "protocol": "as §3"}}, "note": "Read-outs that look alike come from different tables or passages of the source."}
{"molecule": "O=c1c(Cc2ccc(O)cc2)coc2cc(O)cc(O)c12", "note": "[Compound 9, 5,7-dihydroxy-3-(4′-hydroxybenzyl) chromone]", "values": [{"measurement": "Type of interaction with acarbose against α-glucosidase", "setting": "[1]", "result": "synergism"}, {"measurement": "CI values against α-glucosidase", "setting": "[1]", "result": "below 0.9"}, {"measurement": "IC50", "setting": "[2]", "result": "650 ± 10", "unit": "µM"}, {"measurement": "IC50", "setting": "[3]", "result": "2590 ± 50", "unit": "µM"}, {"measurement": "Type of interaction with acarbose against α-amylase", "setting": "[4]", "result": "additive effects"}, {"measurement": "Ki", "setting": "[5]", "result": "8590 ± 1940", "unit": "µM"}, {"measurement": "Mode of inhibition (α-amylase)", "setting": "[5]", "result": "Mixed"}, {"measurement": "Ki", "setting": "[6]", "result": "54.4 ± 15.8", "unit": "µM"}, {"measurement": "Mode of inhibition (α-glucosidase)", "setting": "[6]; Lineweaver–Burk plots", "result": "Mixed"}]}
{"molecule": "Cc1c(Cl)c(O)cc(O)c1Cl", "note": "[Compound 24, 4,6-dichloro-5-methyl-benzene-1,3-diol]", "values": [{"measurement": "Type of interaction with acarbose against α-glucosidase", "setting": "[1]", "result": "moderate additive effects"}, {"measurement": "IC50", "setting": "[2]", "result": "780 ± 30", "unit": "µM"}, {"measurement": "IC50 against α-amylase (result in words)", "setting": "[3]", "result": "did not yield 50% inhibition"}, {"measurement": "Ki", "setting": "[6]", "result": "44 ± 0.88", "unit": "µM"}, {"measurement": "Mode of inhibition (α-glucosidase)", "setting": "[6]; Lineweaver–Burk plots", "result": "Mixed"}]}
{"molecule": "Cc1c(O)cc2c(c1O)C(=O)C(Cc1ccc(O)cc1)CO2", "note": "(centres unmarked) [Compound 8, 5,7-dihydroxy-6-methyl-3-(4′-hydroxybenzyl) chroman-4-one]", "values": [{"measurement": "Type of interaction with acarbose against α-glucosidase", "setting": "[1]", "result": "synergism"}, {"measurement": "CI values against α-glucosidase", "setting": "[1]", "result": "below 0.9"}, {"measurement": "IC50", "setting": "[2]", "result": "520 ± 10", "unit": "µM"}, {"measurement": "IC50", "setting": "[3]", "result": "5990 ± 60", "unit": "µM"}, {"measurement": "Type of interaction with acarbose against α-amylase", "setting": "[4]", "result": "additive effects"}, {"measurement": "Ki", "setting": "[5]", "result": "14100 ± 3530", "unit": "µM"}, {"measurement": "Mode of inhibition (α-amylase)", "setting": "[5]", "result": "Mixed"}, {"measurement": "Ki", "setting": "[6]", "result": "11.2 ± 0.99", "unit": "µM"}, {"measurement": "Mode of inhibition (α-glucosidase)", "setting": "[6]; Lineweaver–Burk plots", "result": "Competitive"}]}
{"molecule": "O=C(/C=C/c1ccc(O)cc1)NCCc1ccc(O)cc1", "note": "[Compound 18, trans-N-p-coumaroyltyramine]", "values": [{"measurement": "IC50", "setting": "[2]", "result": "1.99 ± 0.2", "unit": "µM"}, {"measurement": "Ki", "setting": "[6]", "result": "21.1 ± 12.2", "unit": "µM"}, {"measurement": "Mode of inhibition (α-glucosidase)", "setting": "[6]; Lineweaver–Burk plots", "result": "Uncompetitive"}]}
{"molecule": "CCO[C@@H](c1ccc(O)c(OC)c1)[C@H](O)CO", "note": "[Compound 22, erythro-7R,8S-7-O-ethylguaiacyl glycerol]", "values": [{"measurement": "Type of interaction with acarbose against α-glucosidase", "setting": "[1]", "result": "synergism"}, {"measurement": "CI values against α-glucosidase", "setting": "[1]", "result": "below 0.9"}, {"measurement": "IC50", "setting": "[2]", "result": "40 ± 4", "unit": "µM"}, {"measurement": "IC50 against α-amylase (result in words)", "setting": "[3]", "result": "did not yield 50% inhibition"}, {"measurement": "Ki", "setting": "[6]", "result": "7 ± 1.97", "unit": "µM"}, {"measurement": "Mode of inhibition (α-glucosidase)", "setting": "[6]; Lineweaver–Burk plots", "result": "Mixed"}]}
{"molecule": "(2S)-4′-hydroxy-5,7-dimethoxy-8-methylflavan [Compound 6]", "values": [{"measurement": "IC50", "setting": "[7]", "result": "370 ± 20", "unit": "µM"}, {"measurement": "Type of interaction with acarbose against α-glucosidase", "setting": "[1]", "result": "slight antagonism"}, {"measurement": "CI (combination index) against α-glucosidase", "setting": "[1]; highest concentration pair (about IC50), acarbose 5 mM, No.6/No.8 0.5 mM, No.9/No.24 1 mM, No.22 50 μM", "result": 1.12}, {"measurement": "IC50", "setting": "[3]; read-out: IC50 against α-amylase, in vitro, starch-iodine method, 37 °C", "result": "6030 ± 270", "unit": "µM"}, {"measurement": "Type of interaction with acarbose against α-amylase", "setting": "[4]", "result": "additive effects"}, {"measurement": "Ki", "setting": "[5]", "result": "27500 ± 3510", "unit": "µM"}, {"measurement": "Mode of inhibition (α-amylase)", "setting": "[5]", "result": "Mixed"}, {"measurement": "Mode of inhibition (α-glucosidase)", "setting": "[6]; Lineweaver–Burk plots", "result": "Mixed"}, {"measurement": "Ki", "setting": "[6]; read-out: Ki (α-glucosidase), Lineweaver–Burk plots", "result": "57.8 ± 1.67", "unit": "µM"}]}
{"molecule": "COc1cc(O)c2c(c1C)O[C@H](c1ccc(O)cc1)CC2", "note": "[Compound 5, (2S)-4′,5-Dihydroxy-7-methoxy-8-methylflavan]", "values": [{"measurement": "IC50", "setting": "[2]", "result": "240 ± 30", "unit": "µM"}, {"measurement": "Ki", "setting": "[6]", "result": "39.9 ± 8.47", "unit": "µM"}, {"measurement": "Mode of inhibition (α-glucosidase)", "setting": "[6]; Lineweaver–Burk plots", "result": "noncompetitive inhibitor"}]}
